# Groups on a side chain read outwards from the residue. No end group written: not given here.
# T1: insulin-degrading enzyme (IDE) (Homo sapiens, UniProt P14735)
# T1 construct: purchased R&D Systems
# T1 sequence (P14735 1-1019): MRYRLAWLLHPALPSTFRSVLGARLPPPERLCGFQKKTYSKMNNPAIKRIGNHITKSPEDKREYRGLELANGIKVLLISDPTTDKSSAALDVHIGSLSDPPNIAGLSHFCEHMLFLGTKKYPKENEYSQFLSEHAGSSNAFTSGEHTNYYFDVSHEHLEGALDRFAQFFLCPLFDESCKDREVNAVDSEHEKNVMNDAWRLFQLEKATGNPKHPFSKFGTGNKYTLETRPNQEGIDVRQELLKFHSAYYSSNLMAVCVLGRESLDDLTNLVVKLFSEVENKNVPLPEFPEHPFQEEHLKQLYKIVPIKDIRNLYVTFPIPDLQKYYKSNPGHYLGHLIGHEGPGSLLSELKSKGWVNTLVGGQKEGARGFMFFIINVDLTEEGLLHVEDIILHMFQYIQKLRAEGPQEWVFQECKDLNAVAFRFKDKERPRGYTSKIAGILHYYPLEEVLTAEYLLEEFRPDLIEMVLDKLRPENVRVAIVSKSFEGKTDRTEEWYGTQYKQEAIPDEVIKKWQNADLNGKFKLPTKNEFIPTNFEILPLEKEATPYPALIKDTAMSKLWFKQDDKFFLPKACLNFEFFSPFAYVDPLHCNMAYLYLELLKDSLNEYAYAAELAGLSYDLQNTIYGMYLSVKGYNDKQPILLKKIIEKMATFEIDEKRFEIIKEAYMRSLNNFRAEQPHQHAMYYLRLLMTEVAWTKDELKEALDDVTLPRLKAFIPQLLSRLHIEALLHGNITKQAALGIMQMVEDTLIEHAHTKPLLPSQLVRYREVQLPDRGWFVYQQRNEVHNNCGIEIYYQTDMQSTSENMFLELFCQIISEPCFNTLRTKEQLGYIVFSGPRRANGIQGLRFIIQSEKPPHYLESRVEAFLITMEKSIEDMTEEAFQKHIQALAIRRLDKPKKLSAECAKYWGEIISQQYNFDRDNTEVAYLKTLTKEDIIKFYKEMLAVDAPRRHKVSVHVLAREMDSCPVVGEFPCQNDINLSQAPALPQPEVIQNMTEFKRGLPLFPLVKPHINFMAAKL
# T2: VIP/PACAP receptor VPAC1 (UniProt P32241 31-457)
# T2 sequence (looked up): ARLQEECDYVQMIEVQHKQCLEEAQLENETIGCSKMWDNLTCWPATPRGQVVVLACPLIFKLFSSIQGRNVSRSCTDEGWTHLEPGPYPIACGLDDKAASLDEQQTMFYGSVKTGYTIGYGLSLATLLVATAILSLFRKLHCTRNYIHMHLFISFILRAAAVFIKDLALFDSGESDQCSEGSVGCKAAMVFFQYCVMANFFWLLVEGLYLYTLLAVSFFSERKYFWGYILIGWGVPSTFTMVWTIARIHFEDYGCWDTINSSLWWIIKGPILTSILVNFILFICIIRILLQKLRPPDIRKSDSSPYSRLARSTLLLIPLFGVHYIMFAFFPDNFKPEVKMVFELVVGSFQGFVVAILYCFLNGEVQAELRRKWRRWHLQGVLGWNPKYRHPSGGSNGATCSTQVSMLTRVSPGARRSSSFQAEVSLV
# T3: VIP/PACAP receptor VPAC2 (UniProt P41587 24-438)
# T3 sequence (looked up): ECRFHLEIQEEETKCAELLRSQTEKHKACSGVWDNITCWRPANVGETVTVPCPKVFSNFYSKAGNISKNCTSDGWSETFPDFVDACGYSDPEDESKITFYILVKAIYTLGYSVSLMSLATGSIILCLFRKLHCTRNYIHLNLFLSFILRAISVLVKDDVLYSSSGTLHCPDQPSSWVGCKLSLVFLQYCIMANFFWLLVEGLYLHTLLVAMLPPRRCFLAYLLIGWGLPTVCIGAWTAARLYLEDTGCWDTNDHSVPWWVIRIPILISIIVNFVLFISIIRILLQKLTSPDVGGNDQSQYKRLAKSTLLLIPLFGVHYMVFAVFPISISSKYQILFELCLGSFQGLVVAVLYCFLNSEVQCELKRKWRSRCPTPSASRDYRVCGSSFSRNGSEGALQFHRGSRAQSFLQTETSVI
# Experiments:
# [1] = test system: male Sprague Dawley rats; assay: Acute cardiovascular and renal actions of i.v. infusion in anesthetized rats; type: in vivo; conditions: rat; for change in mean arterial pressure (MAP) over the infusion period / change in plasma cGMP over the infusion period: 600 pmol/kg/min i.v., 60 minutes infusion; for MAP in the 30 minutes clearance period: after 60 min infusion
# Text: The protocol is outlined in FIG. 9A.
# Rats were then subjected to vessel and bladder cannulation for peptide infusion, BP measurement, blood sampling and urine collection. A polyethylene (PE)-5G tube catheter was placed into the jugular vein for inulin, peptide intravenous infusion. The carotid artery was cannulated with a PE-50 tube catheter for BP measurement (Sonometrics, London, Ontario, Canada) and blood sampling. The bladder was accessed and cannulated with a PE-50 tube catheter for passive urine collection. After completion of the above procedural set up, a 45 min equilibration period was performed that included continuous IV inulin and saline infusion. After the 45 min equilibration period, baseline (Time==Q min) parameters were recorded and one blood sampling (0.7 ml) was performed. The inulin and saline infusion was replaced by a continuous intravenously (i.v.) infusion of equimolar ANP-Ser19/ST or ANP-Ser25/ST for 60 min. The infusion rate was weight adjusted and equals weight*0.7/6000 ml/min. After 60 min infusion (Time=60 min), another blood sampling (0.7 ml) was conducted. […] Urine was collected at the end of the infusion (Time=60 min) and the study (Time=90 min). Urinary sodium was measured with pHOx Ultra (Nova Biomedical, Waltham, Mass.). Urine flow (UV) and urinary sodium excretion (UNaV) were calculated as urine volume or sodium clearance per min, Inulin concentrations were measured with enthrone method and inulin clearance was used for GFR quantification. Urinary cGMP and ANP excretion rate was calculated based on raw values obtained in the urine and UV.
# [2] = target: T1, insulin-degrading enzyme (IDE); assay: In vitro degradation by insulin-degrading enzyme, MALDI-TOF time course; type: in vitro ADME
# [3] = target: neprilysin (NEP) (Homo sapiens, UniProt P08473); assay: In vitro degradation by neprilysin, MALDI-TOF time course; conditions: 37° C., MALDI-TOF
# Chain of neprilysin (NEP) (P08473 whole entry): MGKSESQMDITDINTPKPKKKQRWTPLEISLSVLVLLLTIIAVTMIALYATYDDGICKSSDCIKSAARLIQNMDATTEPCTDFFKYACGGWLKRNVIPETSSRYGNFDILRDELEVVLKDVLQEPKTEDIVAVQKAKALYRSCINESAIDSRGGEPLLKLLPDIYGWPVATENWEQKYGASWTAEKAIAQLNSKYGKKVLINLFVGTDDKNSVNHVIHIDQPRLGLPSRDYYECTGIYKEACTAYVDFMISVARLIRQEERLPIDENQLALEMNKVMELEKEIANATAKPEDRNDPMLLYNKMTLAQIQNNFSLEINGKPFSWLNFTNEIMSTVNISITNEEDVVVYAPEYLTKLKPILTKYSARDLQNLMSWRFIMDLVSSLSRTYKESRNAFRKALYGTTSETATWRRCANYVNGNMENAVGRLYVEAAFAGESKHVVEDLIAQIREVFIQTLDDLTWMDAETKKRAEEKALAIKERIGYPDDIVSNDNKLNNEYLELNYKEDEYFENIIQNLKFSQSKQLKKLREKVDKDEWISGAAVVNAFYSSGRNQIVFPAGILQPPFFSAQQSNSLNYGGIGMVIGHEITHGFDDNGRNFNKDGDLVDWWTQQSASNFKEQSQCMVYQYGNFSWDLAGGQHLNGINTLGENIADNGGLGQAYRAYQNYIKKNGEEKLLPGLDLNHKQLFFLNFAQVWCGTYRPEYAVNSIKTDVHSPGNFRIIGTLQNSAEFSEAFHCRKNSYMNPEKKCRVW
# Protocol: (§1) Many peptide hormones are destined for endocrine circulation where they are rapidly degraded with half-lives reaching only a few minutes^6-8.
# (§2) For enzymatic degradation assays using either NEP or DPP-IV (R&D systems, UK), an enzyme titration was carried out to ensure full degradation within one hour of reaction time.
# (§3) MALDI-TOF-MS was performed on a Bruker Autoflex instrument (Bruker Daltonik GmbH, Bremen, Germany) by mixing the quenched aliquots with a saturated solution of α-Cyano-4-hydroxycinnamic acid in ACN/H2O/TFA (70:30:0.1) at a ratio 1:1 on a target steel plate and mass-spectra were acquired in linear mode.
# Reactions were performed in 50 mM Tris, 0.05% Brij-35, pH 9 (Neprilysin), or 50 mM Tris, 20 mM NaCl, pH 7.5 (IDE) and incubated at 37° C.
# [4] = target: dipeptidyl peptidase IV (DPP-IV) (Homo sapiens, UniProt P27487); assay: In vitro degradation by DPP-IV, MALDI-TOF time course
# Chain of dipeptidyl peptidase IV (DPP-IV) (P27487 whole entry): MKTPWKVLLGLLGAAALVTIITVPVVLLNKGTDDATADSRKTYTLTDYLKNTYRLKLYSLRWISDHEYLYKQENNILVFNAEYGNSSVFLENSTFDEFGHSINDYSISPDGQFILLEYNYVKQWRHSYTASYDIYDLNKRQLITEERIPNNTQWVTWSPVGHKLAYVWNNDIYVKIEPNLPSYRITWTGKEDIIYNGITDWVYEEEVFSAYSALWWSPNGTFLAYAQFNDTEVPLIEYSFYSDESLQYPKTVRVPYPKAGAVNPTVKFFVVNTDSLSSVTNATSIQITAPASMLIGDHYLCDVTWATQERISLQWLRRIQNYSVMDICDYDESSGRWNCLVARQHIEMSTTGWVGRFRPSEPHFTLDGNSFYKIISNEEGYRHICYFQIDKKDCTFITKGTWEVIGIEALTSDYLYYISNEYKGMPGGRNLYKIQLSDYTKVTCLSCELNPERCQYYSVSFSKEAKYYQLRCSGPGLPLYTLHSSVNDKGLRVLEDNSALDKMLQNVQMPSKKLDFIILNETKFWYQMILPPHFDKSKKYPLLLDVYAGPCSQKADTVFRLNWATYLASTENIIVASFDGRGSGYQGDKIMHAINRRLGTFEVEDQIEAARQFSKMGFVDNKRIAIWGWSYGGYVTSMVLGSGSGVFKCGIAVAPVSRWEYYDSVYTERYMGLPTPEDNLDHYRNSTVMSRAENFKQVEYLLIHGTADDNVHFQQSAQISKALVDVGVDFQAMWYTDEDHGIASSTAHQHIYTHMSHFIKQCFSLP
# Protocol: as §1, §2, §3
# [5] = target: T2, VIP/PACAP receptor VPAC1; assay: cell-based or functional assay
# [6] = target: T3, VIP/PACAP receptor VPAC2; assay: cell-based or functional assay
Molecule,change in mean arterial pressure (MAP) over the infusion period [1],change in plasma cGMP over the infusion period [1],MAP in the 30 minutes clearance period [1],remained (completely) intact after incubation with NEP [3],remained fully intact after/until incubation with DPP-IV [4],"potency, cAMP accumulation (HTRF) [5]","potency, cAMP accumulation (HTRF) [6]",also measured
"CC[C@H](C)[C@@H]1NC(=O)[C@H](CCCNC(=N)N)NC(=O)[C@H](CC(=O)O)NC(=O)[C@H](CCSC)NC(=O)[C@H](CCCNC(=N)N)NC(=O)CNC(=O)CNC(=O)[C@H](Cc2ccccc2)NC(=O)[C@@H](NC(=O)[C@H](CO)NC(=O)[C@H](CO)NC(=O)[C@H](CCCNC(=N)N)NC(=O)[C@H](CCCNC(=N)N)NC(=O)[C@H](CC(C)C)NC(=O)[C@@H](N)CO)CSSC[C@@H](C(=O)N[C@@H](CC(N)=O)C(=O)N[C@@H](CO)C(=O)N[C@@H](Cc2ccccc2)C(=O)N[C@@H](CCCNC(=N)N)C(=O)N[C@@H](Cc2ccc(O)cc2)C(=O)O)NC(=O)CNC(=O)[C@H](CC(C)C)NC(=O)CNC(=O)[C@H](CO)NC(=O)[C@H](CCC(N)=O)NC(=O)[C@H](C)NC(=O)CNC1=O [ANP, Atrial natriuretic factor, reference compound]",decrease,increase,rebounded,,,,,UV after a clearance period of 30 minutes [1]: normalized; time to complete degradation by insulin-degrading enzyme [2]: ≤ 15 min
CC[C@H](C)[C@@H]1NC(=O)[C@H](CCCNC(=N)N)NC(=O)[C@H](CC(=O)O)NC(=O)[C@H](CCSC)NC(=O)[C@H](CCCNC(=N)N)NC(=O)CNC(=O)CNC(=O)[C@H](Cc2ccccc2)NC(=O)[C@@H](NC(=O)[C@H](CO)NC(=O)[C@H](CO)NC(=O)[C@H](CCCNC(=N)N)NC(=O)[C@H](CCCNC(=N)N)NC(=O)[C@H](CC(C)C)NC(=O)[C@@H](N)CO)CSSC[C@@H](C(=O)N[C@@H](CC(N)=O)C(=O)N[C@@H](CO)C(=O)N[C@@H](Cc2ccccc2)C(=O)N[C@@H](CCCNC(=N)N)C(=O)N[C@@H](Cc2ccc(O)cc2)C(=O)O)NC(=O)CNC(=O)[C@H](CC(C)C)NC(=O)CNC(=O)[C@H](CO[C@H]2O[C@H](CO)[C@H](O)[C@H](O[C@@H]3O[C@H](CO)[C@H](O)[C@H](O[C@]4(C(=O)O)C[C@H](O)[C@@H](NC(C)=O)[C@H]([C@H](O)[C@H](O)CO)O4)[C@H]3O)[C@H]2NC(C)=O)NC(=O)[C@H](CCC(N)=O)NC(=O)[C@H](C)NC(=O)CNC1=O [ANP-Ser19/ST],decrease,increase,sustained or further reduced,,,,,effect on diuresis and natriuresis ([1]; i.v. infusion): did not result in increased diuresis nor natriuresis
CC[C@H](C)[C@H](NC(=O)[C@H](Cc1ccccc1)NC(=O)[C@H](CCC(=O)O)NC(=O)[C@H](CCCCN)NC(=O)[C@H](C)NC(=O)[C@H](C)NC(=O)[C@H](CCC(N)=O)NC(=O)CNC(=O)[C@H](CCC(=O)O)NC(=O)[C@H](CC(C)C)NC(=O)[C@H](Cc1ccc(O)cc1)NC(=O)[C@H](CO)NC(=O)[C@H](CO)NC(=O)[C@@H](NC(=O)[C@H](CC(=O)O)NC(=O)[C@H](CO)NC(=O)[C@@H](NC(=O)[C@H](Cc1ccccc1)NC(=O)[C@@H](NC(=O)CNC(=O)[C@H](CCC(=O)O)NC(=O)[C@H](C)NC(=O)[C@@H](N)Cc1c[nH]cn1)[C@@H](C)O)[C@@H](C)O[C@H]1O[C@H](CO)[C@H](O)[C@H](O[C@@H]2O[C@H](CO)[C@H](O)[C@H](O[C@]3(C(=O)O)C[C@H](O)[C@@H](NC(C)=O)[C@H]([C@H](O)[C@H](O)CO)O3)[C@H]2O)[C@H]1NC(C)=O)C(C)C)C(=O)N[C@@H](C)C(=O)N[C@@H](Cc1c[nH]c2ccccc12)C(=O)N[C@@H](CC(C)C)C(=O)N[C@H](C(=O)N[C@@H](CCCCN)C(=O)NCC(=O)N[C@@H](CCCNC(=N)N)C(N)=O)C(C)C [GLP-1-Thr7/ST],,,,60 min,120 min,,,
CC[C@H](C)[C@H](NC(=O)[C@H](CO)NC(=O)[C@H](CC(N)=O)NC(=O)[C@H](CC(C)C)NC(=O)[C@H](Cc1ccc(O)cc1)NC(=O)[C@H](CCCCN)NC(=O)[C@H](CCCCN)NC(=O)[C@@H](NC(=O)[C@H](C)NC(=O)[C@H](CCSC)NC(=O)[C@H](CCC(N)=O)NC(=O)[C@H](CCCCN)NC(=O)[C@H](CCCNC(=N)N)NC(=O)[C@H](CC(C)C)NC(=O)[C@H](CCCNC(=N)N)NC(=O)[C@@H](NC(=O)[C@H](Cc1ccc(O)cc1)NC(=O)[C@H](CC(N)=O)NC(=O)[C@H](CC(=O)O)NC(=O)[C@@H](NC(=O)[C@H](Cc1ccccc1)NC(=O)[C@@H](NC(=O)[C@H](C)NC(=O)[C@H](CC(=O)O)NC(=O)[C@H](CO)NC(=O)[C@@H](N)Cc1c[nH]cn1)C(C)C)[C@@H](C)O[C@H]1O[C@H](CO)[C@H](O)[C@H](O[C@@H]2O[C@H](CO)[C@H](O)[C@H](O[C@]3(C(=O)O)C[C@H](O)[C@@H](NC(C)=O)[C@H]([C@H](O)[C@H](O)CO)O3)[C@H]2O)[C@H]1NC(C)=O)[C@@H](C)O)C(C)C)C(=O)N[C@@H](CC(C)C)C(=O)N[C@@H](CC(N)=O)C(N)=O [VIP-Thr7/ST],,,,60 min,30 min,,,partially intact after incubation with DPP-IV [4]: 60 min
HSDAVFT([GalNAc-Gal-NeuAc])DNYTRLRKQMAVKKYLNSILN [VIP with ST O-glycan at Thr7],,,,,,74 nM,244 nM,
HSDAVFT(GalNAc)DNYTRLRKQMAVKKYLNSILN [VIP with one O-glycan (GalNAc/Tn) at residue 7],,,,,,102 nM,242 nM,
